Assay results: ChEMBL document CHEMBL5338706, “Discovery of a potent and selective proteolysis targeting chimera (PROTAC) degrader of NSD3 histone methyltransferase” (Eur J Med Chem, 2022)
The source made the active and inactive calls. No cut-off for these calls is given here.

target: T1, Histone-lysine N-methyltransferase NSD3 (Homo sapiens) (UniProt Q9BZ95); test: Induction of NSD3 degradation in human NCI-H1703 cells at 5 uM incubated for 72 hrs by Western blot analysis; type: cell-based; settings: not given
T1 sequence (whole entry): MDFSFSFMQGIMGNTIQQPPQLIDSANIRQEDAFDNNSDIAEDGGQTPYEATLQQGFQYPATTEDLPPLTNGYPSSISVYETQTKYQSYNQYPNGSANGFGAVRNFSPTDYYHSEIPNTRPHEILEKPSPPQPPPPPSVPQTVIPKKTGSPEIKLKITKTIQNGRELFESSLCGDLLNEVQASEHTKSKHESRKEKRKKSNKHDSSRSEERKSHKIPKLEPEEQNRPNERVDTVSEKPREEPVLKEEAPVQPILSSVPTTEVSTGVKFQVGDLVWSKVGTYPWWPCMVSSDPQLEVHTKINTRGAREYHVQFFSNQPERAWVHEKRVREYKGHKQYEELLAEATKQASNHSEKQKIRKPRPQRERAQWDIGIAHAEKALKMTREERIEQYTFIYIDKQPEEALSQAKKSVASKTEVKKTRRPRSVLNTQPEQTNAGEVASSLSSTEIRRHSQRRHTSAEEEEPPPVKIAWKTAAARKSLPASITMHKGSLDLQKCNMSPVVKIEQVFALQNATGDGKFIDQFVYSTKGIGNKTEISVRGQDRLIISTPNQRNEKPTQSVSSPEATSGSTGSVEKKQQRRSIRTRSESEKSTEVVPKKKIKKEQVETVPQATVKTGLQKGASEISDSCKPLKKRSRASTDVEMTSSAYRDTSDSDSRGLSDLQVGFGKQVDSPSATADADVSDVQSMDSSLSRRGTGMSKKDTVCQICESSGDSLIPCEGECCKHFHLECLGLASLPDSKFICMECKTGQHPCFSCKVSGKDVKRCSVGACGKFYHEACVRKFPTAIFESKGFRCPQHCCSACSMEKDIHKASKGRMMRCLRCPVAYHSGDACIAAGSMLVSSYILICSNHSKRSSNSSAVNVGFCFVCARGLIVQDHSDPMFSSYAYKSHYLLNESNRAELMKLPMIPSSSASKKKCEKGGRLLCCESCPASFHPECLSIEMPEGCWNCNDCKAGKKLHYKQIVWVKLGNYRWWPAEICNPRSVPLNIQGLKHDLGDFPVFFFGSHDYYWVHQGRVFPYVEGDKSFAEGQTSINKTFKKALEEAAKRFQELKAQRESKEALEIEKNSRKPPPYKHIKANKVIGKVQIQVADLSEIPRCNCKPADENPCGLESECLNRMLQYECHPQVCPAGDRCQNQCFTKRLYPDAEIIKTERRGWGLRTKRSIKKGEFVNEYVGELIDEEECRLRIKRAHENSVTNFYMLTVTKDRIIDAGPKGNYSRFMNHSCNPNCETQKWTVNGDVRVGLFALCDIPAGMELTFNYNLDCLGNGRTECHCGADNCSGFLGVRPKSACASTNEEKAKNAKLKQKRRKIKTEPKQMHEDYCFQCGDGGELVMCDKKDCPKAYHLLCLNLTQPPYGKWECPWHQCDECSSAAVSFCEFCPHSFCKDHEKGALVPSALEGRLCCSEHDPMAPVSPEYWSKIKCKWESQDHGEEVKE

Going from `Cc1cc(CNCCCCCCCCCNc2cccc3c2C(=O)N(C2CCC(=O)NC2=O)C3=O)cc(C)c1-c1ncn(C)c1-c1ccnc2cc(F)ccc12` (stereo not drawn) to `Cc1cc(CNCCCCCCCCCCNc2cccc3c2C(=O)N(C2CCC(=O)NC2=O)C3=O)cc(C)c1-c1ncn(C)c1-c1ccnc2cc(F)ccc12` (stereo not drawn), the NSD3 degradation rises from 1.7% to 21%.

Going from `Cc1cc(CNCCOCCOCCOCCC(=O)N[C@H](C(=O)N2C[C@H](O)C[C@H]2C(=O)N[C@@H](C)c2ccc(-c3scnc3C)cc2)C(C)(C)C)cc(C)c1-c1ncn(C)c1-c1ccnc2cc(F)ccc12` to `Cc1cc(CNCCOCCOCCOCCOCCC(=O)N[C@H](C(=O)N2C[C@H](O)C[C@H]2C(=O)N[C@@H](C)c2ccc(-c3scnc3C)cc2)C(C)(C)C)cc(C)c1-c1ncn(C)c1-c1ccnc2cc(F)ccc12`, the NSD3 degradation rises from 7.4% to 7.7%.

Going from `Cc1cc(CNCCCCCCCC(=O)N[C@H](C(=O)N2C[C@H](O)C[C@H]2C(=O)N[C@@H](C)c2ccc(-c3scnc3C)cc2)C(C)(C)C)cc(C)c1-c1ncn(C)c1-c1ccnc2cc(F)ccc12` to `Cc1cc(CNCCCCCCCCC(=O)N[C@H](C(=O)N2C[C@H](O)C[C@H]2C(=O)N[C@@H](C)c2ccc(-c3scnc3C)cc2)C(C)(C)C)cc(C)c1-c1ncn(C)c1-c1ccnc2cc(F)ccc12`, the NSD3 degradation rises from -2.4% to 0.7%.

Going from `Cc1cc(CNCCCCCCCCCCCNc2cccc3c2C(=O)N(C2CCC(=O)NC2=O)C3=O)cc(C)c1-c1ncn(C)c1-c1ccnc2cc(F)ccc12` (stereo not drawn) to `Cc1cc(CNCCCCCCCCCCCCNc2cccc3c2C(=O)N(C2CCC(=O)NC2=O)C3=O)cc(C)c1-c1ncn(C)c1-c1ccnc2cc(F)ccc12` (stereo not drawn), the NSD3 degradation falls from 15.6% to 1.5%.

Going from `Cc1cc(CNCCCCCC(=O)N[C@H](C(=O)N2C[C@H](O)C[C@H]2C(=O)N[C@@H](C)c2ccc(-c3scnc3C)cc2)C(C)(C)C)cc(C)c1-c1ncn(C)c1-c1ccnc2cc(F)ccc12` to `Cc1cc(CNCCCCCCC(=O)N[C@H](C(=O)N2C[C@H](O)C[C@H]2C(=O)N[C@@H](C)c2ccc(-c3scnc3C)cc2)C(C)(C)C)cc(C)c1-c1ncn(C)c1-c1ccnc2cc(F)ccc12`, the NSD3 degradation rises from 1.6% to 6.3%.

First: Cc1cc(CNCCCCCCCCCCCC(=O)N[C@H](C(=O)N2C[C@H](O)C[C@H]2C(=O)N[C@@H](C)c2ccc(-c3scnc3C)cc2)C(C)(C)C)cc(C)c1-c1ncn(C)c1-c1ccnc2cc(F)ccc12
Second: Cc1cc(CNCCCCCCCCCCCCC(=O)N[C@H](C(=O)N2C[C@H](O)C[C@H]2C(=O)N[C@@H](C)c2ccc(-c3scnc3C)cc2)C(C)(C)C)cc(C)c1-c1ncn(C)c1-c1ccnc2cc(F)ccc12
The NSD3 degradation of the first is lower: 1.5% for the first, 38% for the second.

Compared with `Cc1cc(CNCCCCCCCCCCCCCC(=O)N[C@H](C(=O)N2C[C@H](O)C[C@H]2C(=O)N[C@@H](C)c2ccc(-c3scnc3C)cc2)C(C)(C)C)cc(C)c1-c1ncn(C)c1-c1ccnc2cc(F)ccc12`, `Cc1cc(CNCCCCCCCCCCCCCCC(=O)N[C@H](C(=O)N2C[C@H](O)C[C@H]2C(=O)N[C@@H](C)c2ccc(-c3scnc3C)cc2)C(C)(C)C)cc(C)c1-c1ncn(C)c1-c1ccnc2cc(F)ccc12` is lower in NSD3 degradation: 45.2% for the first, 33.1% for the second.

First: Cc1cc(CNCCCN2CCN(CCC(=O)N[C@H](C(=O)N3C[C@H](O)C[C@H]3C(=O)N[C@@H](C)c3ccc(-c4scnc4C)cc3)C(C)(C)C)CC2)cc(C)c1-c1ncn(C)c1-c1ccnc2cc(F)ccc12
Second: Cc1cc(CNCCCN2CCN(CCCC(=O)N[C@H](C(=O)N3C[C@H](O)C[C@H]3C(=O)N[C@@H](C)c3ccc(-c4scnc4C)cc3)C(C)(C)C)CC2)cc(C)c1-c1ncn(C)c1-c1ccnc2cc(F)ccc12
The NSD3 degradation of the first is higher: 25.8% for the first, 13.8% for the second.

Going from `Cc1cc(CNCCCCC(=O)N[C@H](C(=O)N2C[C@H](O)C[C@H]2C(=O)N[C@@H](C)c2ccc(-c3scnc3C)cc2)C(C)(C)C)cc(C)c1-c1ncn(C)c1-c1ccnc2cc(F)ccc12` to `Cc1cc(CNCCCCCCCCCC(=O)N[C@H](C(=O)N2C[C@H](O)C[C@H]2C(=O)N[C@@H](C)c2ccc(-c3scnc3C)cc2)C(C)(C)C)cc(C)c1-c1ncn(C)c1-c1ccnc2cc(F)ccc12`, the NSD3 degradation rises from -4.2% to 1.2%.

Going from `Cc1cc(CNCCCCCCN2CCN(CC(=O)N[C@H](C(=O)N3C[C@H](O)C[C@H]3C(=O)N[C@@H](C)c3ccc(-c4scnc4C)cc3)C(C)(C)C)CC2)cc(C)c1-c1ncn(C)c1-c1ccnc2cc(F)ccc12` to `Cc1cc(CNCCCCCN2CCN(CC(=O)N[C@H](C(=O)N3C[C@H](O)C[C@H]3C(=O)N[C@@H](C)c3ccc(-c4scnc4C)cc3)C(C)(C)C)CC2)cc(C)c1-c1ncn(C)c1-c1ccnc2cc(F)ccc12`, the NSD3 degradation rises from 37.6% to 53.5%.

Going from `Cc1cc(CNCCOCCOCCC(=O)N[C@H](C(=O)N2C[C@H](O)C[C@H]2C(=O)N[C@@H](C)c2ccc(-c3scnc3C)cc2)C(C)(C)C)cc(C)c1-c1ncn(C)c1-c1ccnc2cc(F)ccc12` to `Cc1cc(CNCCOCCOCCOCC(=O)N[C@H](C(=O)N2C[C@H](O)C[C@H]2C(=O)N[C@@H](C)c2ccc(-c3scnc3C)cc2)C(C)(C)C)cc(C)c1-c1ncn(C)c1-c1ccnc2cc(F)ccc12`, the NSD3 degradation rises from -7.2% to 10.7%.

First: Cc1cc(CNCCCCCCCCCCCCCCCC(=O)N[C@H](C(=O)N2C[C@H](O)C[C@H]2C(=O)N[C@@H](C)c2ccc(-c3scnc3C)cc2)C(C)(C)C)cc(C)c1-c1ncn(C)c1-c1ccnc2cc(F)ccc12
Second: Cc1cc(CNCCN2CCN(CCCC(=O)N[C@H](C(=O)N3C[C@H](O)C[C@H]3C(=O)N[C@@H](C)c3ccc(-c4scnc4C)cc3)C(C)(C)C)CC2)cc(C)c1-c1ncn(C)c1-c1ccnc2cc(F)ccc12
The NSD3 degradation of the first is higher: 16.4% for the first, 9.1% for the second.

`Cc1cc(CNCCCCN2CCN(CC(=O)N[C@H](C(=O)N3C[C@H](O)C[C@H]3C(=O)N[C@@H](C)c3ccc(-c4scnc4C)cc3)C(C)(C)C)CC2)cc(C)c1-c1ncn(C)c1-c1ccnc2cc(F)ccc12` was tested, and the NSD3 degradation was 11.1%.

target: T1, Histone-lysine N-methyltransferase NSD3 (Homo sapiens); test: Induction of NSD3 degradation in human NCI-H1703 cells at upto 9 uM incubated for 72 hrs by Western blot analysis; type: cell-based; settings: not given

In the case of `Cc1cc(CN)cc(C)c1-c1ncn(C)c1-c1ccnc2cc(F)ccc12`, the Activity is reported as “inactive”.

test system: A549; test: Antiproliferative activity against human A549 cells at upto 10 uM incubated for 3 days by CCK-8 method; type: functional, cell-based; settings: time 3.0 day

With `Cc1cc(CN)cc(C)c1-c1ncn(C)c1-c1ccnc2cc(F)ccc12` the Activity was “inactive”.

test system: NCI-H1703; test: Antiproliferative activity against human NCI-H1703 cells at upto 10 uM incubated for 6 days by CCK-8 method; type: functional, cell-based; settings: time 6.0 day

For `Cc1cc(CN)cc(C)c1-c1ncn(C)c1-c1ccnc2cc(F)ccc12`, the Activity was “inactive”.
